The results in this text go back to PMC5706701, “Development of a homogenous high-throughput assay for inositol hexakisphosphate kinase 1 activity” (PLoS ONE, 2017).

Structures can show the parent of a compound that is named as a salt. Where two headings read alike, the source gives them in different places.

This assay concerns the target T1, Human IP6K1 (Homo sapiens, UniProt Q92551).
T1 construct: GST (N, cleaved yes); made in house; host or cells: C43 E. coli, pGEX-6P-2
Put plainly: IP6K1 high-throughput screen of the Sigma LOPAC (ADP-Glo Max, single point).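 Also: final compound concentration 10µM in 5% DMSO.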 The class given is biochemical. (In general: ADP-Glo turns the ADP formed in a reaction into a luminescent signal.)

Setting [1] is: Sigma LOPAC single-point screen, ADP-Glo Max raw signal per well.
Where [2] appears, read: Sigma LOPAC single-point screen, Z-score from plate average and StDev.
Where [3] appears, read: LOPAC single-point screen, ADP-Glo Max luminescence raw signal per well.
Setting [4] is: LOPAC single-point screen, Z-score relative to plate average and StDev.
Where [5] appears, read: LOPAC single-point screen, ADP-Glo Max raw signal per well.
[6] abbreviates: LOPAC single-point screen, Z-score from raw signal with plate average and StDev.
Where [7] appears, read: LOPAC single-point screen, Z-score from plate average and StDev.
Where [8] appears, read: LOPAC single-point screen, Z-score against plate average and StDev.

T1 sequence (Q92551 whole entry): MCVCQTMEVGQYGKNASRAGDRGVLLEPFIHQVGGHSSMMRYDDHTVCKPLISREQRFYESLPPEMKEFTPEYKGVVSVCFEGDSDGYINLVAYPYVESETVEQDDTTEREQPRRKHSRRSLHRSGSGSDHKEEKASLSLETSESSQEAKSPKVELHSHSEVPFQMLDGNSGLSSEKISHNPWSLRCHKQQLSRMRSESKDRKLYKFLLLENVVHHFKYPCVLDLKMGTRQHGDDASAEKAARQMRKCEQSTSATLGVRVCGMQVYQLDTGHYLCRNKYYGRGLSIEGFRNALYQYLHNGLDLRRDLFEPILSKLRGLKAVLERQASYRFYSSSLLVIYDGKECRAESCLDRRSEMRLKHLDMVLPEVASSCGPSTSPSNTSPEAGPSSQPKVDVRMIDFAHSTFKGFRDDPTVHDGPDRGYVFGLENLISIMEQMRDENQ

`Nc1ccc(N2C(=O)c3ccccc3C2=O)c(Cl)c1` [N-(4-Amino-2-chlorophenyl)phthalimide]: the “Raw Signal” value under setting [1] was determined as 61206. Moreover, the Z-score under setting [2] came to 0.58.

Take `Cl.N=C(N)NC(=N)Nc1cccc(Cl)c1`: under setting [3], the “Raw Signal” value is reported as 49824. Under setting [4], this molecule gave a Z-score of -1.085.

With `C#CCn1c(=O)c2c(ncn2C)n(C)c1=O` [3,7-Dimethyl-I-propargylxanthine], the “Raw Signal” value under setting [3] turned out to be 50513. This molecule also gave a Z-score under setting [4] of -0.9452.

On to `Cc1ccc(N(CC2=NCCN2)c2cccc(O)c2)cc1` [Phentolamine mesylate], for which, under setting [5], the “Raw Signal” value is 54426. Moreover, the Z-score under setting [6] is recorded as -0.3104.

Take `CN(C)CCCN1c2ccccc2Sc2ccccc21` [Promazine hydrochloride]: the “Raw Signal” value under setting [3] stood at 63198. In addition, the Z-score under setting [7] amounted to 1.394.

On to `OC[C@H]1O[C@@H](n2cnc3c(N[C@H]4CC5CCC4C5)ncnc32)[C@H](O)[C@@H]1O` (stereo partly drawn) [(S)-ENBA], for which the “Raw Signal” value under setting [5] turned out to be 53537. Also, the Z-score under setting [6] was -0.331.

In the case of `COc1cc(NS(C)(=O)=O)ccc1Nc1c2ccccc2nc2ccccc12` [Amsacrine hydrochloride], the “Raw Signal” value under setting [5] is given as 58568. Under setting [8], this molecule registered a Z-score of 0.1153.

Take `Cl.NCCNC(=O)c1ncsc1-c1cccc(F)c1` [Ro 41-1049 hydrochloride]: the “Raw Signal” value under setting [1] turned out to be 60989. Also, the Z-score under setting [2] was 0.9646.

With `N=C1Sc2ccccc2C2=NCCCN12` [PD 404,182], the “Raw Signal” value under setting [5] is listed as 56268. Besides, the Z-score under setting [8] turned out to be 0.315.

For `O=C(O)Cc1ccc(O)c(O)c1` [3,4-Dihydroxyphenylacetic acid], the “Raw Signal” value under setting [1] stood at 57060. In addition, the Z-score under setting [2] was 0.3844.

On to `O=c1onc2cnc3ccccc3n12` [ODQ], for which the “Raw Signal” value under setting [1] is 60819. Moreover, the Z-score under setting [2] turned out to be 1.08.

`Nc1cc(=O)[nH]c(N)n1` [2,6-Diamino-4-pyrimidinone]: the “Raw Signal” value under setting [1] is listed as 57244. Under setting [2], this molecule gave a Z-score of 0.4218.

Turning to `CNC(=O)[C@H]1O[C@@H](n2cnc3c(N)ncnc32)[C@H](O)[C@@H]1O` [5 -N-Methyl carboxamidoadenosine], the “Raw Signal” value under setting [3] stood at 66682. This molecule also gave a Z-score under setting [7] of 1.544.

Take `CCCN(CCC)C1Cc2cc(OC)c(OC)cc2C1.O=C(O)/C=C\C(=O)O` [U-99194A maleate]: under setting [5], the “Raw Signal” value came out at 57664. Besides, the Z-score under setting [8] turned out to be 0.3187.

In the case of `Nc1nnc(-c2cccc(Cl)c2Cl)c(N)n1` [Lamotrigine], the “Raw Signal” value under setting [5] was 53800. Further, the Z-score under setting [6] is given as -0.09973.

For `FC(F)(F)c1ccccc1-n1ccnc1` [1-[2-(Trifluoromethyl)phenyl]imidazole], the “Raw Signal” value under setting [1] is on record as 60208. Also, the Z-score under setting [2] is 0.8129.

In the case of `CC(C)[C@H](CO)Nc1nc(Nc2cccc(Cl)c2)c2ncn(C(C)C)c2n1` [Purvalanol A], the “Raw Signal” value under setting [5] was found to be 54135. Also, under setting [8], the Z-score is listed as -0.04344.

For `O=C(O)CN(CCOCCOCCN(CC(=O)O)CC(=O)O)CC(=O)O`, the “Raw Signal” value came to 55582 and the Z-score is on record as 0.08428.

In the case of `Br.Cc1o[nH]c(=O)c1CC(N)C(=O)O` (racemic) [(±)-AMPA hydrobromide], the “Raw Signal” value under setting [5] is 54656. Moreover, under setting [6], the Z-score was -0.1038.

`COc1ccc(CNC(=O)/C=C/c2ccc3[nH]cc(CCN(C)C)c3c2)cc1` [GR 4661]: under setting [3], the “Raw Signal” value came to 54448. This molecule returned a Z-score under setting [4] of -0.6103.

`Ic1ccccc1CNC1C2CCN(CC2)C1C(c1ccccc1)c1ccccc1.O=C(O)C(=O)O` [L-703,606 oxalate]: the “Raw Signal” value under setting [5] came to 52840. The molecule also had a Z-score under setting [6] of -0.261.

As to `CCn1c(=O)c2nc(-c3ccccc3)[nH]c2n(CC)c1=O` [1,3-Diethyl-8-phenylxanthine], under setting [5], the “Raw Signal” value was found to be 56931. The molecule also displayed a Z-score under setting [6] of -0.173.

For `CCN(CC)C(=O)N[C@H]1C[C@@H]2c3cccc4[nH]cc(c34)C[C@H]2N(C)C1` [R(+)-Terguride], the “Raw Signal” value under setting [1] came to 59619. Moreover, the Z-score under setting [2] stood at 0.6985.

For `C=C[C@@]1(C)CC(=O)[C@]2(O)[C@@]3(C)[C@@H](O)CCC(C)(C)[C@@H]3[C@H](O)[C@H](OC(C)=O)[C@@]2(C)O1` [Forskolin], the “Raw Signal” value under setting [1] is given as 61603. In addition, the Z-score under setting [2] is recorded as 1.307.

`NC(=Nc1ccccc1)NC(=O)c1nc(Cl)c(N)nc1N` [Phenamil methanesulfonate]: the “Raw Signal” value under setting [3] amounted to 52022. Further, the Z-score under setting [4] is given as -0.7775.

Take `COc1ccc2c(c1O)-c1cccc3c1[C@@H](C2)N(C)CC3.Cl` [R(-)-Apocodeine hydrochloride]: the “Raw Signal” value under setting [3] was 50869. Under setting [4], the Z-score is -0.8729.

On to `NCCc1c[nH]c2ccc(O)cc12` [Serotonin hydrochloride], for which, under setting [1], the “Raw Signal” value is listed as 60327. Under setting [2], this molecule displayed a Z-score of 1.048.

For the molecule `CNc1ncnc2c1ncn2[C@H]1C[C@H](OP(=O)(O)O)[C@@H](COP(=O)(O)O)O1` [MRS 2179], the “Raw Signal” value under setting [3] was determined as 51414. The same molecule yielded a Z-score under setting [4] of -0.5006.

With `C[C@@H](N)Cc1cnc[nH]1.Cl.Cl`, the “Raw Signal” value was found to be 55341 and the Z-score is on record as 0.03533.

As for `Cl.Fc1ccc(C(OCCCc2c[nH]cn2)c2ccc(F)cc2)cc1`, the “Raw Signal” value under setting [5] is reported as 51668. Further, the Z-score under setting [6] is -0.458.

In the case of `Cn1cnc([N+](=O)[O-])c1Sc1ncnc2nc[nH]c12` [Azathioprine], the “Raw Signal” value under setting [3] was found to be 52333. Moreover, under setting [4], the Z-score was -0.9828.

As to `COc1cc(C(O)C(=O)O)ccc1O` (racemic) [(±)-Vanillylmandelic acid], the “Raw Signal” value under setting [3] stood at 52849. Also, under setting [4], the Z-score is -0.4708.

As for `O=C(O)[C@H]1CCCN[C@H]1C(=O)O` (racemic), under setting [1], the “Raw Signal” value stood at 60739. Further, the Z-score under setting [2] is on record as 0.9161.

As for `Cl.NC1C=CC=C(C(=O)O)C1` (centres unmarked) [Gabaculine hydrochloride], the “Raw Signal” value under setting [1] stood at 64092. The Z-score under setting [2] was 1.088.

With `COc1ccc(NC(=O)c2ccc(-c3ccc(-c4noc(C)n4)cc3C)cc2)cc1N1CCN(C)CC1.Cl` [GR 127935 hydrochloride], the “Raw Signal” value under setting [3] is on record as 51529. Further, the Z-score under setting [4] is -0.4813.

For the molecule `Cc1c(C)c2c(c(C)c1O)CCC(C)(CN1CCN(c3cc(N4CCCC4)nc(N4CCCC4)n3)CC1)O2.Cl.Cl` (centres unmarked) [U-83836 dihydrochloride], the “Raw Signal” value under setting [3] is given as 52883. Moreover, under setting [4], the Z-score is reported as -0.6102.

With `COc1cccc(C(=O)NCCN2CCN(c3ccc(Cl)cc3)CC2)c1`, under setting [5], the “Raw Signal” value was determined as 55564. The Z-score under setting [6] is recorded as -0.4137.

`O=C(O)/C=C/C(=O)O.O=C(O)/C=C/C(=O)O.O=C(O)/C=C/C(=O)O.O=C1CCCN1CC#CCN1CCCC1.O=C1CCCN1CC#CCN1CCCC1` [Oxotremorine sesquifumarate salt]: the “Raw Signal” value under setting [5] was 55438. The same molecule gave a Z-score under setting [8] of 0.1755.

With `COc1cc(CC(=O)O)ccc1O` [4-Hydroxy-3-methoxyphenylacetic acid], under setting [1], the “Raw Signal” value is 58602. Moreover, the Z-score under setting [2] turned out to be 0.6976.

With `COc1cc(C(O)CO)ccc1OS(=O)(=O)[O-].[K+]` (centres unmarked) [MHPG sulfate potassium], the “Raw Signal” value under setting [5] came out at 56093. Moreover, the Z-score under setting [8] is listed as 0.1881.

For `CC(C)NP(=O)(NC(C)C)OP(=O)(NC(C)C)NC(C)C` [Tetraisopropyl pyrophosphoramide], the “Raw Signal” value under setting [5] came to 57279. The Z-score under setting [8] came out at 0.2439.

On to `Cn1c(=O)c2[nH]cnc2n(C)c1=O` [Theophylline], for which the “Raw Signal” value under setting [3] came out at 53365. Under setting [4], the Z-score is -0.5166.

As for `CC(C(=O)O)c1cccc(C(=O)c2ccccc2)c1` (centres unmarked) [Ketoprofen], under setting [5], the “Raw Signal” value amounted to 53403. The Z-score under setting [6] is listed as -0.1664.

`CN1CCN(C2=Nc3cc(Cl)ccc3Nc3ccccc32)CC1` [Clozapine]: the “Raw Signal” value under setting [3] is listed as 54825. The Z-score under setting [4] is recorded as -0.5439.

For `COc1[nH]c2ccc(F)cc2c1C(=O)OCC1CCN(CCNS(C)(=O)=O)CC1.NS(=O)(=O)O` [GR 125487 sulfamate salt], the “Raw Signal” value under setting [3] was found to be 51618. The Z-score under setting [4] is listed as -0.7208.

`NCCSSCCN` [Cystamine dihydrochloride]: under setting [5], the “Raw Signal” value turned out to be 58178. This molecule returned a Z-score under setting [8] of 0.04666.

Regarding `N.S=C(S)N1CCCC1` [Ammonium pyrrolidinedithiocarbamate], the “Raw Signal” value under setting [1] is 60867. This molecule also returned a Z-score under setting [2] of 0.9409.

Turning to `CC[C@@H](CO)NC(=O)[C@@H]1C=C2c3cccc4[nH]cc(c34)C[C@H]2N(C)C1` [Methylergonovine maleate], the “Raw Signal” value under setting [1] is 56663. Moreover, the Z-score under setting [2] is listed as 0.3813.

Turning to `Cl.NCC(O)C1CCCCCCC1` (centres unmarked), under setting [3], the “Raw Signal” value is 52354. In addition, the Z-score under setting [4] is -0.5713.

Turning to `Br.Oc1ccc(C2CNCc3sccc32)cc1O` (centres unmarked) [SKF 89626], the “Raw Signal” value under setting [5] is 56262. This molecule displayed a Z-score under setting [8] of 0.04628.

Turning to `Cl.Cl.Cl.Ic1ccc(N2CCN(Cc3c[nH]c4ncccc34)CC2)cc1` [L-750,667 trihydrochloride], the “Raw Signal” value under setting [1] worked out at 61468. The molecule further yielded a Z-score under setting [2] of 1.1887.

For the molecule `C=C(C)[C@H]1CN[C@H](C(=O)O)[C@H]1CC(=O)O` [Kainic acid], the “Raw Signal” value worked out at 54485 and the Z-score stood at 0.01537.

In the case of `NCCCCN=C(N)N` [Agmatine sulfate], under setting [5], the “Raw Signal” value came out at 56032. This molecule also displayed a Z-score under setting [6] of -0.3313.

As to `CC(COc1ccccc1)N(CCCl)Cc1ccccc1` (centres unmarked) [Phenoxybenzamine hydrochloride], under setting [1], the “Raw Signal” value was found to be 61919. Under setting [2], the Z-score is 0.7056.

For `CCCNC(C)C(=O)Nc1ccccc1C` (centres unmarked) [Prilocaine hydrochloride], under setting [5], the “Raw Signal” value is given as 55610. This molecule also displayed a Z-score under setting [8] of -0.08039.
